One substance from patent US12390423B2 (priority 2019, dated 2025) can be followed below.

Test [1] deals with pAkt-Ser473 and CPT-1A. Description: Immunoblotting of gastrocnemius muscle lysates of DIO mice. In kind it is in vivo, C57BL/6J mice. As to the method: For all cell culture experiments, after drug treatments cells were washed with chilled phosphate-buffered saline (PBS), and lysed in chilled lysis buffer with 1× protease inhibitor cocktail (Sigma). RIPA lysis buffer (Sigma-Aldrich) was used for INS-1 (832/13) cells and muscle lysis buffer for C2C12 myotubes (20 mM HEPES, 10 mM NaCl, 1.5 mM MgCl2, 1 mM DTT, 20% glycerol, and 0.1% Triton-X100). Cells were scraped, mechanically homogenized using a syringe and centrifuged at 14,000×g for 20 min at 4° C. and the supernatants were collected. For preparation of all gastrocnemius muscle lysates, 10 mg frozen tissue (wet weight) was washed in chilled PBS, placed in a dounce homogenizer, lysed in muscle lysis buffer and centrifuged at 14,000×g for 20 min at 4° C. and the supernatant was collected. Protein content for cell and tissue lysates was measured using the BCA protein assay kit (ThermoFisher) according to manufacturer's protocol. Thirty μg protein lysates were prepared in loading buffer and immunoblotting was performed by heating lysates for 5 minutes at 95° C. and subjecting them to gel electrophoresis on 10% SDS-polyacrylamide gels at 150 V for 75 minutes. Using a semi-dry transfer apparatus (Bio-Rad) the gels were then transferred at 25V for 45 minutes to a PVDF membrane and blocked with 5% BSA (Sigma) in tris-buffered saline-tween (TBS-T) for 1 hour. […]
In general terms: In western blotting, separated proteins are transferred to a membrane and probed.

Test [2] relates to INS-1 (832/13) cells. Description: Mitochondrial ROS (MitoSOX) and membrane potential (JC-1) in INS-1 (832/13) cells. Format: cell-based, rat. As to conditions: 25 μM AvoB, 0.5 mM palmitate, 24 h. As to the method:
For all ROS studies, INS-1 (832/13) cells and C2C12 myotubes were treated with or without palmitate and FAO inhibitors for 24 h in low glucose cell culture media as described for the FAO assay. After treatment, cells were trypsinized and re-suspended in PBS containing 5 μM of the fluorescent dye MitoSOX® (Molecular Probes, Invitrogen) and allowed to incubate for 5-15 minutes in a humidified atmosphere containing 5% CO2 at 37° C. Cells were then washed in PBS, placed in a 96 well plate and fluorescence was measured by flow cytometry. ROS was quantified by normalizing the mean fluorescence values of live gated cells to vehicle control. Mitochondrial membrane potential (MMP) in INS-1 (832/13) and C2C12 myotubes was measured using the cationic fluorescent dye JC-1 (Molecular Probes). […] JC-1 fluoresces green in the cytosol where it exists as a monomer, after entering the mitochondria JC-1 monomers form J aggregates and fluoresce red, thus the red/green fluorescence ratio is used to determine MMP. […] Cells were then washed in PBS, placed in a 96 well plate and fluorescence was measured by flow cytometry. MMP was quantified by normalizing the mean fluorescence values of live gated cells to vehicle control. […] Cells were treated, washed and collected as described and incubated with 0.35 μM NAO and green fluorescence was measured using flow cytometry. […]

Test [3] deals with INS-1 (832/13) cells. Description: Glucose stimulated insulin secretion (GSIS) in INS-1 (832/13) cells. Format: cell-based, rat. As to conditions: 0.5 mM palmitate 24 h, AvoB 25 μM, ETO 100 μM. The protocol:
To measure glucose stimulated insulin secretion (GSIS) in INS-1(832/13) cells a standard protocol was adopted. […] After treatments were complete, cell media was replaced with KRB (Krebs-Ringer Bicarbonate) buffer. Cells were then challenged with 3 mM glucose for 2 h in KRB buffer after which 500 μL KRB buffer was collected and frozen in −80° C. until analysis. For another 2 h, cells were challenged with 16 mM glucose after which 500 μL KRB was collected and frozen in −80° C. until analysis. The amount of insulin released into the KRB buffer was determined by an ELISA kit (Millipore, Rat/Mouse Insulin Detection kit). Data was normalized for cellular protein content, as determined by the Micro-BCA Protein Assay kit. The glucose-dependent insulin secretory index (GSIS16/3), defined as the ratio between the insulin secretion at 16 mM (stimulatory, surrogate to postprandial glucose levels) and 3 mM (basal, surrogate to fasting glucose levels) glucose was also calculated.

“Also recorded” adds a separate entry of the source.

Turning to avocatin B [AvoB], in test [1] (AvoB-treated-HFD mice vs HFD-control mice), the “Phosphorylation of AKT Ser473 in gastrocnemius muscle” value is “increased phosphorylation of AKTSer473”. In addition, the “CPT-1A protein level in gastrocnemius muscle” value in test [1] (HFD-control mice compared to AVO-treated-HFD mice) is given as “higher protein levels of CPT-1A in gastrocnemius muscle compared to AVO-treated-HFD mice”. Besides, in test [2], the “Mitochondrial membrane potential (MMP, JC-1)” value was “lowers palmitate-induced increases” and the “Mitochondrial superoxide levels (MitoSOX Red)” value is “lowers palmitate-induced increases in mitochondrial superoxide levels”. In addition, in test [3], the “Glucose stimulated insulin secretion (GSIS)” value is given as “rescued; also recorded: GSIS was higher”.
